Measurements reported in ChEMBL document CHEMBL1817566, “Halogen-substituted (C-β-D-glucopyranosyl)-hydroquinone regioisomers: synthesis, enzymatic evaluation and their binding to glycogen phosphorylase” (Bioorg Med Chem, 2011).

Target: T1, Glycogen phosphorylase, muscle form (Oryctolagus cuniculus, UniProt P00489)
T1 sequence (P00489 whole entry): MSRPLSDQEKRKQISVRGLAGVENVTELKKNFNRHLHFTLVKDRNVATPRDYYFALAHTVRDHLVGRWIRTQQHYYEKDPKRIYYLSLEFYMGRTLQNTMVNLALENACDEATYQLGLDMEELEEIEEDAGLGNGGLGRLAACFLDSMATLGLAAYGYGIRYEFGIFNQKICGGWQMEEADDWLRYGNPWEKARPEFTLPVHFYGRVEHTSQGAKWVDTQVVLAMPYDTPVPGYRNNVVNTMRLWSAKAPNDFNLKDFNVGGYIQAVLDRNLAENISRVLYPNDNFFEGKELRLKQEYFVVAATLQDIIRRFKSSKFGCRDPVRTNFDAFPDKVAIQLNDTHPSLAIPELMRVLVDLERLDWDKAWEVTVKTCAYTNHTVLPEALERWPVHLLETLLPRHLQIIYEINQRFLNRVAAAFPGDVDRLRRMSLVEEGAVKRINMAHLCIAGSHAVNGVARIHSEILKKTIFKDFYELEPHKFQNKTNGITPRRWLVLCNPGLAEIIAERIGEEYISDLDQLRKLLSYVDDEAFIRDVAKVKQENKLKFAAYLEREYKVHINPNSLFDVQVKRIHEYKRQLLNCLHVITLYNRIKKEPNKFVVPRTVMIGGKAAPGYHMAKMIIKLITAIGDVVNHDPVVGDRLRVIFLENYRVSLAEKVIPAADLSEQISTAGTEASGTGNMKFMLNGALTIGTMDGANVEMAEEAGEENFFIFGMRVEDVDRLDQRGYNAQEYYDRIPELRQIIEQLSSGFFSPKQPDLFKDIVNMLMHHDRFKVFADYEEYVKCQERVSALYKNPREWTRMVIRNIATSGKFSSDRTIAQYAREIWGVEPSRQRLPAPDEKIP
Assay: Competitive inhibition of rabbit muscle glycogen phosphorylase b assessed as inorganic phosphate release using alphaD glucose-1-phosphate as substrate at pH 6.8 by spectrophotometric analysis
Design: species or system Muscle tissue

SMILES | IC50 | Ki
OC[C@H]1O[C@@H](c2cc(O)cc(Cl)c2O)[C@H](O)[C@@H](O)[C@@H]1O | 95 µM | –
O=C1C=CC(=O)C([C@@H]2O[C@H](CO)[C@@H](O)[C@H](O)[C@H]2O)=C1 | – | 1300 µM
OC[C@H]1O[C@@H](c2cc(O)ccc2O)[C@H](O)[C@@H](O)[C@@H]1O | 977 µM | 900 µM
